Reference: ChEMBL document CHEMBL4417636, “Small molecule inhibitors of pendrin ion exchange and pharmaceutical compositions” (2017)
The source made the active and inactive calls. The rule behind the calls is not given here.

Experiments:
Pendrin (Homo sapiens) = molecular target: T1, Pendrin (Homo sapiens) (UniProt O43511); assay: Inhibition of human pendrin expressed in FRT cells co-expressing EYFP-HIF assessed as reduction in pendrin-mediated C17HCO3(-) exchange by measuring reduction in cytoplasmic alkalinization exchange at 2.5 uM by pH-sensitive fluorescent probe BCECF-AM based fluorescence assay relative to control; assay type: cell-based
T1 sequence (whole entry): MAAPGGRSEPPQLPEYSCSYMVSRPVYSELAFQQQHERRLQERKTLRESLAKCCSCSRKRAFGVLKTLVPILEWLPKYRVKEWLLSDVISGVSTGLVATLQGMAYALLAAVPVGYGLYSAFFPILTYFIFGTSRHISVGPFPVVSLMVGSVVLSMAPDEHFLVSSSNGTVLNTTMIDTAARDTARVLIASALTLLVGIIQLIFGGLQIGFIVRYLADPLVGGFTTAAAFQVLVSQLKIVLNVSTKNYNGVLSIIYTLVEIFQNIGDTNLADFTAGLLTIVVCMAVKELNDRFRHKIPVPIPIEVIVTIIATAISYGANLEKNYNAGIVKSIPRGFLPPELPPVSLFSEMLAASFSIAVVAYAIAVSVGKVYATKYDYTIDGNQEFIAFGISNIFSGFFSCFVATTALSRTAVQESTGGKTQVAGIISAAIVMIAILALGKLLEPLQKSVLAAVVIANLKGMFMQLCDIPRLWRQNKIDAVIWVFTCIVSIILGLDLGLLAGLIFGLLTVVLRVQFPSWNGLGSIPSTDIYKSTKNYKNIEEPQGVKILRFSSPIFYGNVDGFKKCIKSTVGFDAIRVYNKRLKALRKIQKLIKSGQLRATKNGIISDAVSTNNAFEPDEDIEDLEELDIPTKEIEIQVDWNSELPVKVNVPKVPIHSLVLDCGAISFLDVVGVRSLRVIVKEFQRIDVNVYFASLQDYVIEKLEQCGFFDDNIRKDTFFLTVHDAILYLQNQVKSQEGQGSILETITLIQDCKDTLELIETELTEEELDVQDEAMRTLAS

Homo sapiens [1] = species on record: Homo sapiens; assay: Effect on airway surface liquid pH in IL13-stimulated NHBE cells at 25 uM by pH-sensitive fluorophore BCECF based fluorescence based assay; assay type: functional, cell-based
Homo sapiens [2] = species on record: Homo sapiens; assay: Effect on airway surface liquid pH in NHBE cells at 25 uM by pH-sensitive fluorophore BCECF based fluorescence based assay; assay type: functional, cell-based
Homo sapiens [3] = species on record: Homo sapiens; assay: Inhibition of potassium channel in human bronchial epithelial cells assessed as effect on short-circuit current at 25 uM pre-incubated for 30 mins
Mus musculus [4] = assay: Potentiation of 20 mg/kg, ip furosemide-induced acute diuretic action in CD1 mouse assessed as effect on urinary K+ excretion at 50 mg/kg, ip measured at 3 hrs relative to control; assay type: functional, organism-based
Mus musculus [5] = assay: Potentiation of 20 mg/kg, ip furosemide-induced acute diuretic action in CD1 mouse assessed as effect on urine pH at 50 mg/kg, ip relative to control; assay type: functional, organism-based
Mus musculus [6] = assay: Potentiation of 20 mg/kg, ip furosemide-induced acute diuretic action in CD1 mouse assessed as effect on urine pH at 10 mg/kg, ip relative to control; assay type: functional, organism-based
[7] = molecular target: T2, Band 3 anion transport protein (Mus musculus) (UniProt P04919); assay: Inhibition of mouse Slc4a1 expressed in COS7 co-expressing EYFP-HIF assessed as effect on SCN(-) gradient at 25 uM by YFP-based fluorescence quenching assay
T2 sequence (whole entry): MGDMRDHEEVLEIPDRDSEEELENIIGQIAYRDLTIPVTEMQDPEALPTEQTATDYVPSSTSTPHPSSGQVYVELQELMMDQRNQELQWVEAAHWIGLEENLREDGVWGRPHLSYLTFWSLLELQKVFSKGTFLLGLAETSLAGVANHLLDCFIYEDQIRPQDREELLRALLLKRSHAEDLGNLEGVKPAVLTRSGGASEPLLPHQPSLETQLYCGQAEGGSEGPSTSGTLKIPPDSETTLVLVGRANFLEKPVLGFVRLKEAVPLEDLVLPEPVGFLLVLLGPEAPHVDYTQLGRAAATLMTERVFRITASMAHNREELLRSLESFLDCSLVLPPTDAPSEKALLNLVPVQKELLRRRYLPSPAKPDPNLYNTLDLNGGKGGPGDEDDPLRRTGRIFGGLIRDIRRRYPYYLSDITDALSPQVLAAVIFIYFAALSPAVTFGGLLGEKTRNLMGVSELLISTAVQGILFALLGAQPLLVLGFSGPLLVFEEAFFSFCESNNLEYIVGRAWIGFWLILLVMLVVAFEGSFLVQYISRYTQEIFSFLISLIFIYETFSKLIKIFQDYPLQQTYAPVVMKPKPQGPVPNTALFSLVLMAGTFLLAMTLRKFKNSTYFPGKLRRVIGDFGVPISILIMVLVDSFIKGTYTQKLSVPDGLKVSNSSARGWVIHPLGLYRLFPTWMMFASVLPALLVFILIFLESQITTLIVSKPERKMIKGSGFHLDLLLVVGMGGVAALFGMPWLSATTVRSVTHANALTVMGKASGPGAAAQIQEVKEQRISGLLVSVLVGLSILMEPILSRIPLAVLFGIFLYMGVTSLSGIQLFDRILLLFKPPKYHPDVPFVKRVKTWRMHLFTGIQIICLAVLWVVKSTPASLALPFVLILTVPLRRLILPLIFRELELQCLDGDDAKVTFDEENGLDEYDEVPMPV

Row | Structure (SMILES) | inhibition (Pendrin (Homo sapiens)) | Activity (Homo sapiens [1]) | Activity (Homo sapiens [2]) | inhibition (Homo sapiens [3]) | Activity (Mus musculus [4]) | Activity (Mus musculus [5]) | Activity (Mus musculus [6]) | inhibition [7]
1 | Cn1nc(COc2cccc(F)c2)c2c1CCN(C(=O)Nc1ccc(Cl)cc1)C2 | 50% | inactive | inactive | inactive | – | – | – | –
2 | Cc1n[nH]c(-c2cc(S(=O)(=O)NC3CCCc4ccccc43)c(C)s2)c1C (stereo not drawn) | – | – | – | – | inactive | inactive | inactive | inactive
